Paper PMC12134304, “Exploring novel of 1,2,4-triazolo[4,3-a]quinoxaline sulfonamide regioisomers as anti-diabetic and anti-Alzheimer agents with in-silico molecular docking simulation” (Scientific Reports, 2025)

What was measured:
Type in all cases: biochemical
α-glucosidase = test: in vitro enzyme inhibition assay (Pistia-Brueggeman method); conditions: read-out: The in vitro median inhibitory concentrations (IC50 ± SE) (μM) / Anti-diabetic activity ^a / α-glucosidase
α-amylase = test: in vitro enzyme inhibition assay (Wickramaratne method); conditions: read-out: The in vitro median inhibitory concentrations (IC50 ± SE) (μM) / Anti-diabetic activity ^a / α-amylase
[1] = target: acetylcholinesterase (AChE) (Homo sapiens, UniProt P22303); test: Ellman's method, single-concentration percent inhibition
Sequence of acetylcholinesterase (AChE) (P22303 32-614): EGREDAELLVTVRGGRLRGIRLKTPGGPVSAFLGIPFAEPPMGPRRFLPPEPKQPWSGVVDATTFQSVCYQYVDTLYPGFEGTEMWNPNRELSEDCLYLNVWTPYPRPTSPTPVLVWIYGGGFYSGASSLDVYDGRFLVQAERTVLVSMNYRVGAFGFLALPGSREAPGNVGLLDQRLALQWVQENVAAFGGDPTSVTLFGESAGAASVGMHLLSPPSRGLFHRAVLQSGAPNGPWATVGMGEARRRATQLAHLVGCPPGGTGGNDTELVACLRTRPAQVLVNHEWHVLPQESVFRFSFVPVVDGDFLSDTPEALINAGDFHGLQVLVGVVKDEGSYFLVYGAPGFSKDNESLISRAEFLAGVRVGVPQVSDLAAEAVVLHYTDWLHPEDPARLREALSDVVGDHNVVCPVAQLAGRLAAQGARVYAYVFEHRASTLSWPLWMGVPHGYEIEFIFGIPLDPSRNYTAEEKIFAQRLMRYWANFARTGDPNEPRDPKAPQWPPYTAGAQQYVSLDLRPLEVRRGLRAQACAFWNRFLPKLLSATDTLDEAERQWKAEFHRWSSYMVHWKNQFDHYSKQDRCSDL

Row | SMILES | IC50 (α-glucosidase) [µM] | IC50 (α-amylase) [µM] | The in vitro inhibitory percentage (IP ± SE) of the designed two isomers sulfonamide quinoxaline derivatives at 100 μM / Anti-Alzheimer activity ^a / AChE [1]
1 | C=CCNc1nnc2c(N3CCCC3)nc3ccc(S(=O)(=O)N4CCCC4)cc3n12 [10a, N-Allyl-4-(pyrrolidin-1-yl)-8-(pyrrolidin-1-ylsulfonyl)-[1,2,4]triazolo[4,3-a]quinoxalin-1-amine] | 3.46 ± 0.06 | 6.89 ± 0.09 | –
2 | Cc1nnc2c(N3CCCC3)nc3cc(S(=O)(=O)N4CCCC4)ccc3n12 [11b, 1-Methyl-4-(pyrrolidin-1-yl)-7-(pyrrolidin-1-ylsulfonyl)-[1,2,4]triazolo[4,3-a]quinoxaline] | – | – | 44.78 ± 0.01
